The values that follow come from patent US10455839B2, “Pre-plant biocide uses of aqueous cyanamides” (METBRO DI[…], priority 2015, dated 2019).

Series [1] deals with P. vulnus. The series can be described thus: Five-day sieve-mist extraction of nematodes from roots and soil after tree drench (FIG. 27). The settings on record: 2,000 ppm drench. It is filed as in vivo, Pratylenchus vulnus.
Series [2] deals with Meloidogyne incognita race-3. The series can be described thus: Field Station drench of sandy loam soil infested with root-knot nematode (FIGS. 18-19). The format is in vivo. The procedure: Field Station evaluations included sandy loam soil at 10° C. vs 15° C. in adjacent sites. These sites were uniformly infested with Meloidogyne incognita race-3. The first site (10° C.) was drenched with 750 or 1,000 ppm to a depth of 40 cm and planted with carrots 70 DAT. Ten weeks later soil at the second site (15° C.) was drenched with 1,250 or 1,500 ppm and 30 DAT planted with sweet potato slips. Nematode samples were collected at 0-15 and 15-30 cm depths.

Series [3] relates to eight-year-old butternut trees, Juglans cathayensis. In words: Drench of eight-year-old butternut trees, tree kill (FIG. 26). It is filed as in vivo. An excerpt:
Field Station evaluation of eight-year-old butternut trees, Juglans cathayensis, drenched with 2,000 ppm HyCyn within 400 or 800 L water. Two of four trees receiving 400 L solution were not completely killed but four of four trees receiving 800 L of the same solution were killed (FIG. 26).

Series [4] deals with one-year-old almonds trees. In words: Root system soak of one-year-old almond trees (FIGS. 24-25). The conditions noted are these: 750 ppm, 24 hr, entire root systems soaked in a static setting. It is filed as in vivo. The source says: Field Station evaluation where root systems of one-year-old almonds trees were placed in concentrations of HyCyn. Intact 1-yr-old trees were separated from their planting pots and placed into buckets containing open solutions of 400; 750; 1,000; 1,250; 1,500; or 3,000 ppm HyCyn for 6, 18 or 24 hr. […] The results are depicted in FIGS. 24 and 25.

Series [5] relates to Young almond trees on NEMAGUARD rootstock. The series can be described thus: Almond replant site soil, potted tree growth (FIGS. 22-23). It is filed as in vivo. The source says:
Field Station evaluation involved sandy loam soil at an almond replant site drenched uniformly with 1,000 ppm. Surface soil was collected 60 days later and potted from three treatments, water only, 250 ppm Telone EC and 1000 ppm HyCyn. Young almond trees on NEMAGUARD rootstock were planted to each pot and trees maintained for six months.

Series [6] has as its system F. oxysporum race-4. The series can be described thus: Field Station drench of sandy loam soil to be planted to cotton, fungal counts (FIGS. 20-21). It is filed as in vivo, Fusarium oxysporum. The conditions noted are these: 3,000 or 4,500 ppm drenched to 40 cm; sandy loam at 10° C.; counted 28 and 70 DAT. The procedure: Field Station evaluation in sandy loam soil at 10° C. to be planted to cotton soil was drenched with 3,000 or 4,500 ppm HyCyn to 40 cm depth. F. oxysporum race-4 were identified and counted at 28 DAT (FIG. 20) and 70 DAT (FIG. 21).

For series [7], the system named is endo and ecotparasitic nematodes. The series can be described thus: Soil column drench, nematode control (Example 1, FIG. 2). The format is in vivo. The settings on record: 750 ppm; soil screened free of roots; 15, 30 and 60 days after treatment. The procedure:
In situ soil borne pest and disease populations were determined from known commercial locations. These infested soils were commonly of sandy loam or fine sandy loam texture that were screened free of all but the smallest of roots as they were placed into buckets. Buckets were then transported to a single location of deep loamy sand soil where 30″ long by 3″ diameter PVC open-ended pipes had been inserted to a depth of 22″ using a 3″ can auger (FIG. 1). Each soil column was then filled with infested soil to a depth of 22″ using a shovel handle to compress soil density during the soil transfer process.
The surface 8″ of each column remained vacant in order to eventually apply one liter of biocide solution onto each soil column and then determine the amount of time required to fully infiltrate the liter of water. Because infiltration rates varied from 3 hr to 4 days across each different biocide with or without adjuvant each column was used only once. Columns were cleaned and re-inserted to a different nearby location for subsequent tests. As testing proceeded dosage response curves were developed to reveal dosages needed to reach threshold levels for pest impact followed by quantification of the dosage needed to achieve as much as 100% pest kill where possible. […]

The test system of series [8] is cotton or occasional nutgrass. In words: Phytotoxicity after drench in cotton field. The format is in vivo. The conditions noted are these: 3,000 or 4,500 ppm; never irrigated field.

Regarding `N#CN` [HyCyn, hydrogen cyanamide], in series [1] (beneath the surface 90 cm of treated soil), the “kill of soil dwelling nematodes” value was determined as 99.9%. Moreover, in series [1] (root samples, FIG. 27: 30 DAT), the “kill of P. vulnus from root samples” value is given as “kill of all P. vulnus”. Also, the nematode control entry in series [2] (750 or 1,000 ppm drenched to 40 cm, sandy loam soil at 10° C., carrots) is reported as “no nematode control”; in series [2] (1,250 or 1,500 ppm, sandy loam soil at 15° C., sweet potato) it was “did provide nematode control”. For the same compound, the “trees not completely killed” value in series [3] (2,000 ppm within 400 L water) is reported as “Two of four”. In series [3] (2,000 ppm within 800 L water), the trees killed result is “four of four”. Moreover, the “tree survival after root soak” value in series [4] is reported as “no tree survived or re-initiated growth”. Further, the “root rejection component of the replant problem” value in series [5] (1,000 ppm) is “provides a remedy for the root rejection component of the replant problem”. In series [5] (1,000 ppm, compared to soil treated with 250 ppm Telone ec or untreated soil), the “tree growth after six months (FIG. 23)” value is on record as “improved growth”. Also, the “tree growth within 2 months after planting” value in series [5] (soil drenched with 1,000 ppm, collected 60 days later and potted, versus water only) was “improved growth”. Moreover, in series [5] (soil drenched with 1,000 ppm, compared to the untreated), the “plant biomass at the 6th month” value is recorded as “plant biomass differences were greater”. In series [6], the “rate needed to halt F. oxysporum” value is reported as “highest rate was necessary to halt F. oxysporum”. In addition, the “effect on nematode populations in test soil” value in series [7] was “elimination of endo and ecotparasitic nematodes”. The “burning of leaves of cotton or occasional nutgrass” value in series [8] is reported as “did not cease even five months after treatment”.
